Consider twelve compounds from US7834019B2, “Substituted pyrazolo[3,4-d]pyrimidinone derivatives” (Banyu Pharmaceutical Co., Ltd., priority 2006, dated 2010).

For one test, the target named is T1, Weel kinase (Homo sapiens, UniProt P30291).
T1 construct: made in house; host or cells: Sf9 insect cells (recombinant baculovirus)
In words: Weel kinase-inhibitory effect (33P-ATP filter assay with purified GST-tagged Weel kinase). The test is classed as biochemical. The following applies: Poly(Lys,Tyr) substrate, 10 μM ATP, 30° C. for 30 minutes. From the text:
Pharmaceutical Test 1 (Weel Kinase-Inhibitory Effect)
(1) Purification of Weel Kinase:
A cDNA of Weel kinase with […] (GST) fused at the amino terminal thereof was inserted into a baculovirus expression vector to construct a recombinant baculovirus, with which cells of an insect cell line Sf9 were infected for high expression therein. The infected cells were recovered and solubilized, and then the GST-tagged Weel kinase protein was adsorbed by a glutathione column, and eluted from the column with glutathione, and the active fraction was desalted in a desalting column to give a purified enzyme.
(2) Determination of Weel Kinase Activity:
In determination of the Weel kinase activity, a synthetic peptide, Poly(Lys,Tyr) Hydrobromide (Lys:Tyr (4:1)) bought from Sigma was used as the substrate.
The amount of the reaction mixture was 21.1 μL; and the composition of the reaction buffer was 50 mM Tris-HCl buffer (pH 7.4)/10 mM magnesium chloride/1 mM dithiothreitol. The purified Weel kinase, 2.5 μg of the substrate peptide, 10 μM of non-labeled adenosine triphosphate (ATP) and 1 μCi of [γ-^33P]-labeled ATP (2500 Ci/mmol or more) were added to it, and incubated at 30° C. for 30 minutes. Next, 10 μL of 350 mM phosphate buffer was added to the reaction mixture to stop the reaction. The substrate peptide was adsorbed by a P81 paper filter 96-well plate, then washed a few times with 130 mM phosphate buffer, and its radioactivity was counted with a liquid scintillation counter. The [γ-^33P]-labeled ATP was bought from Amersham Bioscience.
To add the test compound to the reaction system, the compound was diluted with dimethylsulfoxide (DMSO) to prepare a series of dilutions. 1.1 μL of each dilution was added to the reaction system. As a control, 1.1 μL of DMSO was added to the reaction system.

Test [1] deals with Human colon cancer cells WiDr. In words: Tumor growth-inhibitory effect, WiDr tumor implanted subcutaneously in nude rats. The format is in vivo, F344/N Jcl-mu nude rats. As to conditions: gemcitabine 50 mg/kg intravenously alone. As for the experimental part:
Pharmaceutical Test 4 (Tumor Growth-Inhibitory Effect)
Human colon cancer cells WiDr (gotten from ATCC) were implanted into the subcutaneous area of the back of F344/N Jcl-mu nude rats. Eight days after the implantation, gemcitabine (50 mg/kg, Gemzar injection, Eli-Lilly) was intravenously administered to them; and after 24 hours, a test compound was dissolved in a solvent (5% glucose) and given to them through continuous intravenous injection for 8 hours. The tumor volume (0.5×(major diameter)×(minor diameter)^2) was determined on day 0, 3, 6, 10 and 13. Day 0 means the day on which gemcitabine was administered. The relative tumor volume is a relative value, as calculated on the basis of the tumor volume of 1 on day 0. The tumor growth percentage (% T/C) was obtained according to the following formula:
When the tumor volume change from day 0 in the group subjected to test compound administration is more than 0 (>0): % T/C=[(tumor volume change in the test compounds on day 3, 6, 10, 13)/(tumor volume change in the control on day 3, 6, 10, 13)]×100. When the tumor volume change from day 0 in the group subjected to test compound administration is less than 0 (<0): % T/C=[(tumor volume change in the test compounds on day 3, 6, 10, 13)/(tumor volume […])]×100.

T1 sequence (P30291 whole entry): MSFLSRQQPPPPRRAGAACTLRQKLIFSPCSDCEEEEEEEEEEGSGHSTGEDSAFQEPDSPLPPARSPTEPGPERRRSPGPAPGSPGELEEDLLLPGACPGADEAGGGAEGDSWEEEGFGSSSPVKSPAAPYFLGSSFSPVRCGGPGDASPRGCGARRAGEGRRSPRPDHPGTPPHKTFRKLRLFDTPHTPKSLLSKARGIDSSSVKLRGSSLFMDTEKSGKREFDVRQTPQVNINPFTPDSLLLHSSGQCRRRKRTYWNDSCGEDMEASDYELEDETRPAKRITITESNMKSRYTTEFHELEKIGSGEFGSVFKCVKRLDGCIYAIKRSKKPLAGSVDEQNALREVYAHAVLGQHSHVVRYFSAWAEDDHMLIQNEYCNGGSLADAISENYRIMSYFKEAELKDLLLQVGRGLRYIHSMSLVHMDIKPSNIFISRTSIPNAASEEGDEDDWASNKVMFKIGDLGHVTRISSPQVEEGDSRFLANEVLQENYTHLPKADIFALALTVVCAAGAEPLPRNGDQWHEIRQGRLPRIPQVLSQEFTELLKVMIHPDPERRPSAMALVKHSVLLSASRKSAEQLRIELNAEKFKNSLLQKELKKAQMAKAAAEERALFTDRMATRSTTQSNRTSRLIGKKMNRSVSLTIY

For `C=CCn1c(=O)c2cnc(Nc3ccc(N4CCN(C)CC4)cc3)nc2n1-c1cccc(CN(C)S(C)(=O)=O)n1` [Example 99, N-{[6-(2-allyl-6-{[4-(4-methylpiperazin-1-yl)phenyl]amino}-3-oxo-1,2-dihydro-3H-pyrazolo[3,4-d]pyrimidin-1-yl)pyridin-2-yl]methyl}-N-methylmethanesulfonamide], half-maximal inhibition against Weel kinase (IC50) was put at 8.8 nM. This lies in the single-digit nanomolar range.
Still for that read-out and setting: the result for `C=CCn1c(=O)c2cnc(Nc3ccc(N4CCN(C)CC4)cc3)nc2n1-c1cccc(C(=O)N(C)C)c1` [Example 1, 3-(2-allyl-6-{[4-(4-methylpiperazin-1-yl)phenyl]amino}-3-oxo-1,2-dihydro-3H-pyrazolo[3,4-d]pyrimidin-1-yl)-N,N-dimethylbenzamide] reads 7 nM; that for `Cc1cc(Nc2ncc3c(=O)n(Cc4ccccc4)n(-c4ccccc4)c3n2)ccc1N1CCN(C)CC1` [Example 111, 2-benzyl-6-{[3-methyl-4-(4-methylpiperazin-1-yl)phenyl]amino}-1-phenyl-1,2-dihydro-3H-pyrazolo[3,4-d]pyrimidin-3-one], 24 nM.
For `C=CCn1c(=O)c2cnc(Nc3ccc(N4CCN(C)CC4)c(C)c3)nc2n1-c1cccc(CN(C)C)n1` [Example 52, 2-allyl-1-[6-[(dimethylamino)methyl]pyridin-2-yl]-6-{[3-methyl-4-(4-methylpiperazin-1-yl)phenyl]amino}-1,2-dihydro-3H-pyrazolo[3,4-d]pyrimidin-3-one], on Weel kinase, the half-maximal inhibitory concentration (IC50) (commonly the concentration at which inhibition is half-maximal) was 12 nM.
In turn, `C=CCn1c(=O)c2cnc(Nc3ccc(N4CCN(C)CC4)cc3)nc2n1-c1cccc(N2CCN(C)C2=O)n1` [Example 148, 2-allyl-1-[6-(3-methyl-2-oxoimidazolidin-1-yl)pyridin-2-yl]-6-{[4-(4-methylpiperazin-1-yl)phenyl]amino}-1,2-dihydro-3H-pyrazolo[3,4-d]pyrimidin-3-one] displayed an IC50 on Weel kinase of 17 nM.
Same read-out and setting: the result for `C=CCn1c(=O)c2cnc(Nc3ccc(N4CCN(C)CC4)c(CO)c3)nc2n1-c1ccccn1` [Example 29, 2-allyl-6-{[3-hydroxymethyl-4-(4-methylpiperazin-1-yl)phenyl]amino}-1-pyridin-2-yl-1,2-dihydro-3H-pyrazolo[3,4-d]pyrimidin-3-one] reads 20 nM; that for `C=CCn1c(=O)c2cnc(Nc3ccc(N4CCN(C)CC4)c(C)c3)nc2n1-c1cccc(OCCO)n1` [Example 98, 2-allyl-1-[6-(2-hydroxyethoxy)pyridin-2-yl]-6-{[3-methyl-4-(4-methylpiperazin-1-yl)phenyl]amino}-1,2-dihydro-3H-pyrazolo[3,4-d]pyrimidin-3-one], 14 nM.
On to `C=CCn1c(=O)c2cnc(Nc3ccc(N4CCN(C)CC4)c(CO)c3)nc2n1-c1ccsc1` [Example 3, 2-allyl-6-{[3-(hydroxymethyl)-4-(4-methylpiperazin-1-yl)phenyl]amino}-1-(3-thienyl)-1,2-dihydro-3H-pyrazolo[3,4-d]pyrimidin-3-one], for which the IC50 on Weel kinase was 7.6 nM. Against the preceding compound, the IC50 is about 1.8-fold lower.
For the compound `Nc1ccn([C@@H]2O[C@H](CO)[C@@H](O)C2(F)F)c(=O)n1` [Gemcitabine, gemcitabine, reference compound], the “% T/C day 3” value in test [1] (day 3) was 22%. Moreover, the “% T/C day 6” value in test [1] (day 6) is recorded as 31%. Besides, the “% T/C day 10” value in test [1] (day 10) came out at 54%. For the same compound, the “% T/C day 13” value in test [1] (day 13) is 65%.
The compound `CC(C)n1c(=O)c2cnc(Nc3ccc(C4CCN(C)CC4)cc3)nc2n1-c1cccc(C(C)(C)O)n1` [Example 147, 1-[6-(1-hydroxy-1-methylethyl)pyridin-2-yl]-2-isopropyl-6-{[4-(1-methylpiperidin-4-yl)phenyl]amino}-1,2-dihydro-3H-pyrazolo[3,4-d]pyrimidin-3-one] gave an IC50 against Weel kinase of 24 nM. This lies in the double-digit nanomolar range.
`C=CCn1c(=O)c2cnc(Nc3ccc(N4CCN(C)CC4)cc3)nc2n1-c1cccc(CN(C)C)c1` [Example 26, 2-allyl-1-[3-(dimethylaminomethyl)phenyl]-6-{[4-(4-methylpiperazin-1-yl)phenyl]amino}-1,2-dihydro-3H-pyrazolo[3,4-d]pyrimidin-3-one] displayed an IC50 against Weel kinase of 18 nM.
Same read-out and setting: next, `C#CCn1c(=O)c2cnc(Nc3ccc(N4CCN(C)CC4)cc3)nc2n1-c1cccc(C(C)(C)O)n1` [Example 113, 1-[6-(1-hydroxy-1-methylethyl)pyridin-2-yl]-6-{[4-(4-methylpiperazin-1-yl)phenyl]amino}-2-(2-propynyl)-1,2-dihydro-3H-pyrazolo[3,4-d]pyrimidin-3-one]: 6.3 nM.
